Patent US20240216369A1, “THE USE OF A SPLICING MODULATOR FOR A TREATMENT SLOWING PROGRESSION OF HUNTINGTON'S DISEASE” (Novartis AG, priority 2019, published 2024)

What was measured:
mHTT = test: Mutant and total HTT multiplex HTRF assay in Q48 HTT human embryonic stem cell line: mHTT; format: cell-based; conditions: Q48 HTT hESC, 48 hours
How it was run: (§1)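 Q48 HTT hESCs from HD donors were treated with compound for 48 h at 37 °C after 24 h adherence, then lysed. Lysates were read by multiplex HTRF with N-terminal donor, polyQ (MW1) and post-polyQ (MAB2166) antibodies for 4-6 h at RT. Donor/acceptor ratios give relative mHTT and tHTT; pIC50 reported.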

tHTT = test: Mutant and total HTT multiplex HTRF assay in Q48 HTT human embryonic stem cell line: tHTT; format: cell-based; conditions: Q48 HTT hESC, 48 hours
How it was run: as §1

Compound | Rating (based on mHTT potency) (mHTT) | mHTT pIC50 (mHTT) | tHTT pIC50 (tHTT)
Cc1cc(C2CC2)c2cc(-c3ccc(N(C)C4CC(C)(C)NC(C)(C)C4)nn3)c(O)cc2n1 [Compound 53, 4-cyclopropyl-2-methyl-6-(6-(methyl(2,2,6,6-tetramethylpiperidin-4-yl)amino)pyridazin-3-yl)quinolin-7-ol] | *** (a pIC50 value between 6.5 and 7.0 is indicated by three stars (***)) | 6.746 | 6.7095
C[C@@H]1CC(Oc2ccc(-c3ccc(-n4cccn4)cc3O)nn2)C[C@@H](C)N1 (stereo partly drawn) [Compound 70, 2-(6-(((2R,6R)-2,6-dimethylpiperidin-4-yl)oxy)pyridazin-3-yl)-5-(1H-pyrazol-1-yl)phenol] | * (a pIC50 value between 5 and 6 is indicated by a single star (*)) | 5.999 | 5.806
CN(c1ccc(-c2ccc(-c3cn[nH]c3)cc2O)nn1)[C@H]1C[C@]2(C)CC[C@](C)(C1)N2 [Compound 3, 2-(6-(((1R,5S)-1,5-dimethyl-8-azabicyclo[3.2.1]octan-3-yl)(methyl)amino)pyridazin-3-yl)-5-(1H-pyrazol-4-yl)phenol] | ***** (a pIC50 value above 7.5 is indicated by five stars (*****)) | 7.717 | 7.609
CN(c1nnc(-c2cc(F)c(-c3cn[nH]c3)cc2Cl)s1)C1CC(C)(C)NC(C)(C)C1 [Compound 22, 5-(2-chloro-5-fluoro-4-(1H-pyrazol-4-yl)phenyl)-N-methyl-N-(2,2,6,6-tetramethylpiperidin-4-yl)-1,3,4-thiadiazol-2-amine] | **** (a pIC50 value between 7.0 and 7.5 is indicated by four stars (****)) | 7.1945 | 7.1125
CN(c1nnc(-c2c(F)cc(-c3cn[nH]c3)cc2F)s1)C1CC(C)(C)NC(C)(C)C1 [Compound 45, 5-(2,6-difluoro-4-(1H-pyrazol-4-yl)phenyl)-N-methyl-N-(2,2,6,6-tetramethylpiperidin-4-yl)-1,3,4-thiadiazol-2-amine] | *** (a pIC50 value between 6.5 and 7.0 is indicated by three stars (***)) | 6.861 | 6.7715
Oc1cc(-c2cn[nH]c2)cc(F)c1-c1nnc(N2C[C@H]3CNC[C@H]3C2)s1 [Compound 27, 3-fluoro-2-(5-((3aR,6aS)-hexahydropyrrolo[3,4-c]pyrrol-2(1H)-yl)-1,3,4-thiadiazol-2-yl)-5-(1H-pyrazol-4-yl)phenol] | **** (a pIC50 value between 7.0 and 7.5 is indicated by four stars (****)) | 7.1125 | 7.085
CN(c1ccc(-c2ccc(-c3cn[nH]c3)cc2O)nn1)C1CC(C)(C)NC(C)(C)C1 [Compound 1, 2-(6-(methyl(2,2,6,6-tetramethylpiperidin-4-yl)amino)pyridazin-3-yl)-5-(1H-pyrazol-4-yl)phenol] | ***** (a pIC50 value above 7.5 is indicated by five stars (*****)) | 7.75 | 7.8065
CN(c1ccc(-c2cc3ccncc3cc2O)nn1)C1CC(C)(C)NC(C)(C)C1 [Compound 52, 6-(6-(methyl(2,2,6,6-tetramethylpiperidin-4-yl)amino)pyridazin-3-yl)isoquinolin-7-ol] | *** (a pIC50 value between 6.5 and 7.0 is indicated by three stars (***)) | 6.7625 | 6.6455
Cc1ncc2cc(-c3ccc(N(C)C4CC(C)(C)NC(C)(C)C4)nn3)c(O)cc2n1 [Compound 60, 2-methyl-6-(6-(methyl(2,2,6,6-tetramethylpiperidin-4-yl)amino)pyridazin-3-yl)quinazolin-7-ol] | *** (a pIC50 value between 6.5 and 7.0 is indicated by three stars (***)) | 6.6725 | 6.7
COc1cc(-c2cn[nH]c2)cc(F)c1-c1nnc(N(C)C2CC(C)(C)NC(C)(C)C2)s1 [Compound 80, 5-(2-fluoro-6-methoxy-4-(1H-pyrazol-4-yl)phenyl)-N-methyl-N-(2,2,6,6-tetramethylpiperidin-4-yl)-1,3,4-thiadiazol-2-amine] | ** (a pIC50 value between 6 and 6.5 is indicated by two stars (**)) | 6.2465 | 6.071
COc1ccnc2cc(-c3ccc(N(C)C4CC(C)(C)NC(C)(C)C4)nn3)c(O)cc12 [Compound 50, 4-methoxy-7-(6-(methyl(2,2,6,6-tetramethylpiperidin-4-yl)amino)pyridazin-3-yl)quinolin-6-ol] | *** (a pIC50 value between 6.5 and 7.0 is indicated by three stars (***)) | 6.8055 | 6.7835
COc1cc(-c2sc(C)nc2C)ccc1-c1nnc(N(C)C2CC(C)(C)NC(C)(C)C2)s1 [Compound 62, 5-(4-(2,4-dimethylthiazol-5-yl)-2-methoxyphenyl)-N-methyl-N-(2,2,6,6-tetramethylpiperidin-4-yl)-1,3,4-thiadiazol-2-amine] | *** (a pIC50 value between 6.5 and 7.0 is indicated by three stars (***)) | 6.6555 | 6.6405
CN(c1nnc(-c2cc3c(cc2O)C(=O)CC3)s1)C1CC(C)(C)NC(C)(C)C1 [Compound 78, 6-hydroxy-5-(5-(methyl(2,2,6,6-tetramethylpiperidin-4-yl)amino)-1,3,4-thiadiazol-2-yl)-2,3-dihydro-1H-inden-1-one] | ** (a pIC50 value between 6 and 6.5 is indicated by two stars (**)) | 6.264 | 6.152
CN(c1ccc(-c2cc3c(=O)nc[nH]c3cc2O)nn1)C1CC(C)(C)NC(C)(C)C1 [Compound 55, 7-hydroxy-6-(6-(methyl(2,2,6,6-tetramethylpiperidin-4-yl)amino)pyridazin-3-yl)quinazolin-4(1H)-one] | *** (a pIC50 value between 6.5 and 7.0 is indicated by three stars (***)) | 6.71 | 6.7485
